The text below walks through data of patent US11964949B2, “Substituted phenyloxazolidinones for antimicrobial therapy” (priority 2015, dated 2024).

In brackets after ≈: the same amount, converted by molar mass. Bounds are passed on as bounds.

One test concerns tuberculosis. The note with it: cited from earlier work.
Test [1] relates to Mycobacterium tuberculosis H37Rv. The test is described as follows: In vitro assay for antimicrobial susceptibility (microplate Alamar blue, MIC). The test is classed as cell-based. The following applies: Mycobacterium tuberculosis; M. tuberculosis H37Rv, 7H9 broth, Alamar blue; read-out: MIC (μg/mL) against H37Rv. For orientation: Alamar Blue is a resazurin reagent that responds to reducing activity.

Test [2] has as its system mitochondrial protein synthesis (MPS) in H9C2 cells. The test is described as follows: In vitro assay for MPS inhibition (COX-1 / SDH-A ELISA in H9C2 cells). The test is classed as cell-based, rat. The following applies: Rattus norvegicus, 120 h; H9C2 cells, 5 days incubation; read-out: IC50 (μM) MPS inhibition. In general terms: An ELISA detects its analyte on a solid surface through an enzyme-linked reagent.

Turning to `CC(=O)NC[C@H]1CN(c2ccc(N3CCOCC3)c(F)c2)C(=O)O1` [Linezolid], in the test with tuberculosis, the “activity in murine models of tuberculosis” value is on record as “only modest activity”.
Regarding `O=C1O[C@@H](Cn2cncn2)CN1c1ccc(N2CCCSCCC2)c(F)c1` [OBD-008, (R)-5-((1H-1,2,4-triazol-1-yl)methyl)-3-(3-fluoro-4-(1,5-thiazocan-5-yl)phenyl)oxazolidin-2-one], the MIC in test [1] was found to be 3.51 µg/mL (≈ 8.97 µM). Further, the concentration for half-maximal inhibition (IC50) in test [2] worked out at 29.9 µM.
For `O=C1O[C@@H](CO)CN1c1ccc(N2CC3CCC(C2)O3)c(F)c1` [OBD-112, 3-(4-(8-oxa-3-aza-bicyclo[3.2.1]octan-3-yl)-3-fluorophenyl)-5-(hydroxymethyl)oxazolidin-2-one] the same measures were 3.5 µg/mL (≈ 10.9 µM) and above 100 µM.

A word on the IC50: it is the concentration that gives 50% inhibition.
